Results reported in ChEMBL document CHEMBL1133284, “3-Phenyl-5-methyl-2H,5H-furan-2-ones: tuning antifungal activity by varying substituents on the phenyl ring” (2000).
Converted amounts (≈) assume the structure as drawn.

Legend:
Candida albicans [1] = assay: In vitro minimum inhibitory concentration of compound was determined against Candida albicans after 48 hr; format: functional
Lichtheimia corymbifera [2] = assay: In vitro minimum inhibitory concentration of compound was determined against Absidia corymbifera after 24 hr r; format: functional
Aspergillus fumigatus [3] = assay: In vitro minimum inhibitory concentration of compound was determined against Aspergillus fumigatus after 24 hr r; format: functional
Pichia kudriavzevii [4] = assay: In vitro minimum inhibitory concentration of compound was determined against Candida krusei after 24 hr r; format: functional
Candida tropicalis [5] = assay: In vitro minimum inhibitory concentration of compound was determined against Candida tropicalis after 48 hr; format: functional
Candida albicans [6] = assay: In vitro minimum inhibitory concentration of compound was determined against Candida albicans after 24 hr r; format: functional
Candida tropicalis [7] = assay: In vitro minimum inhibitory concentration of compound was determined against Candida tropicalis after 24 hr r; format: functional
Aspergillus fumigatus [8] = assay: In vitro minimum inhibitory concentration of compound was determined against Aspergillus fumigatus after 48 hr; format: functional
Nakaseomyces glabratus [9] = assay: In vitro minimum inhibitory concentration of compound was determined against Candida glabrata after 48 hr; format: functional
Trichophyton benhamiae [10] = assay: In vitro minimum inhibitory concentration of compound was determined against Trichophyton mentagrophytes after 72 hr; format: functional, Arthroderma benhamiae
Trichosporon beigelii [11] = assay: In vitro minimum inhibitory concentration of compound was determined against Trichosporon beigelii after 48 hr; format: functional
Pichia kudriavzevii [12] = assay: In vitro minimum inhibitory concentration of compound was determined against Candida krusei after 48 hr; format: functional
Trichosporon beigelii [13] = assay: In vitro minimum inhibitory concentration of compound was determined against Trichosporon beigelii after 24 hr r; format: functional
Lichtheimia corymbifera [14] = assay: In vitro minimum inhibitory concentration of compound was determined against Absidia corymbifera after 48 hr; format: functional
Nakaseomyces glabratus [15] = assay: In vitro minimum inhibitory concentration of compound was determined against Candida glabrata after 24 hr r; format: functional
Trichophyton benhamiae [16] = assay: In vitro minimum inhibitory concentration of compound was determined against Trichophyton mentagrophytes after 120 hr; format: functional, Arthroderma benhamiae

Row | SMILES | MIC (Candida albicans [1]) | MIC (Lichtheimia corymbifera [2]) | MIC (Aspergillus fumigatus [3]) | MIC (Pichia kudriavzevii [4]) | MIC (Candida tropicalis [5]) | MIC (Candida albicans [6]) | MIC (Candida tropicalis [7]) | MIC (Aspergillus fumigatus [8]) | MIC (Nakaseomyces glabratus [9]) | MIC (Trichophyton benhamiae [10]) | MIC (Trichosporon beigelii [11]) | MIC (Pichia kudriavzevii [12]) | MIC (Trichosporon beigelii [13]) | MIC (Lichtheimia corymbifera [14]) | MIC (Nakaseomyces glabratus [15]) | MIC (Trichophyton benhamiae [16])
1 | Cc1ccc(C2=CC(C)OC2=O)cc1 (configuration not stated) | > 1000 µM | 1000 µM (≈ 188 µg/mL) | 1000 µM (≈ 188 µg/mL) | > 1000 µM | > 1000 µM | 1000 µM (≈ 188 µg/mL) | > 1000 µM | > 1000 µM | > 1000 µM | 250 µM (≈ 47.1 µg/mL) | > 1000 µM | > 1000 µM | > 1000 µM | > 1000 µM | > 1000 µM | 500 µM (≈ 94.1 µg/mL)
2 | COc1ccc(C2=CC(C)OC2=O)cc1 (configuration not stated) | 1000 µM (≈ 204 µg/mL) | 1000 µM (≈ 204 µg/mL) | 1000 µM (≈ 204 µg/mL) | > 1000 µM | > 1000 µM | 1000 µM (≈ 204 µg/mL) | 1000 µM (≈ 204 µg/mL) | 1000 µM (≈ 204 µg/mL) | > 1000 µM | 125 µM (≈ 25.5 µg/mL) | > 1000 µM | > 1000 µM | 1000 µM (≈ 204 µg/mL) | > 1000 µM | > 1000 µM | 250 µM (≈ 51.1 µg/mL)
3 | CC1C=C(c2ccc([N+](=O)[O-])cc2)C(=O)O1 (configuration not stated) | 500 µM (≈ 110 µg/mL) | 250 µM (≈ 54.8 µg/mL) | 250 µM (≈ 54.8 µg/mL) | 500 µM (≈ 110 µg/mL) | 500 µM (≈ 110 µg/mL) | 250 µM (≈ 54.8 µg/mL) | 500 µM (≈ 110 µg/mL) | 1000 µM (≈ 219 µg/mL) | 1000 µM (≈ 219 µg/mL) | 62.5 µM (≈ 13.7 µg/mL) | 1000 µM (≈ 219 µg/mL) | 500 µM (≈ 110 µg/mL) | 500 µM (≈ 110 µg/mL) | 250 µM (≈ 54.8 µg/mL) | 500 µM (≈ 110 µg/mL) | 125 µM (≈ 27.4 µg/mL)
4 | CC1C=C(c2ccc(Cl)cc2)C(=O)O1 (configuration not stated) | 125 µM (≈ 26.1 µg/mL) | 125 µM (≈ 26.1 µg/mL) | 62.5 µM (≈ 13 µg/mL) | 250 µM (≈ 52.2 µg/mL) | 500 µM (≈ 104 µg/mL) | 31.2 µM (≈ 6.52 µg/mL) | 250 µM (≈ 52.2 µg/mL) | 125 µM (≈ 26.1 µg/mL) | 1000 µM (≈ 209 µg/mL) | 31.2 µM (≈ 6.52 µg/mL) | 250 µM (≈ 52.2 µg/mL) | 500 µM (≈ 104 µg/mL) | 125 µM (≈ 26.1 µg/mL) | 250 µM (≈ 52.2 µg/mL) | 500 µM (≈ 104 µg/mL) | 62.5 µM (≈ 13 µg/mL)
5 | CC1C=C(c2cccc(Br)c2)C(=O)O1 (configuration not stated) | 125 µM (≈ 31.6 µg/mL) | 62.5 µM (≈ 15.8 µg/mL) | 62.5 µM (≈ 15.8 µg/mL) | 250 µM (≈ 63.3 µg/mL) | 500 µM (≈ 127 µg/mL) | 31.2 µM (≈ 7.91 µg/mL) | 250 µM (≈ 63.3 µg/mL) | 250 µM (≈ 63.3 µg/mL) | 500 µM (≈ 127 µg/mL) | 62.5 µM (≈ 15.8 µg/mL) | 250 µM (≈ 63.3 µg/mL) | 500 µM (≈ 127 µg/mL) | 62.5 µM (≈ 15.8 µg/mL) | 125 µM (≈ 31.6 µg/mL) | 250 µM (≈ 63.3 µg/mL) | 125 µM (≈ 31.6 µg/mL)
6 | CC1C=C(c2ccc(F)cc2)C(=O)O1 (configuration not stated) | 250 µM (≈ 48 µg/mL) | 62.5 µM (≈ 12 µg/mL) | 125 µM (≈ 24 µg/mL) | 500 µM (≈ 96.1 µg/mL) | 500 µM (≈ 96.1 µg/mL) | 62.5 µM (≈ 12 µg/mL) | 250 µM (≈ 48 µg/mL) | 125 µM (≈ 24 µg/mL) | 500 µM (≈ 96.1 µg/mL) | 250 µM (≈ 48 µg/mL) | 250 µM (≈ 48 µg/mL) | 500 µM (≈ 96.1 µg/mL) | 125 µM (≈ 24 µg/mL) | 62.5 µM (≈ 12 µg/mL) | 500 µM (≈ 96.1 µg/mL) | 250 µM (≈ 48 µg/mL)
7 | CC[C@@H]1C=C(c2ccc(C)cc2)C(=O)O1 | 500 µM (≈ 101 µg/mL) | 250 µM (≈ 50.6 µg/mL) | 250 µM (≈ 50.6 µg/mL) | 500 µM (≈ 101 µg/mL) | > 500 µM | 250 µM (≈ 50.6 µg/mL) | 500 µM (≈ 101 µg/mL) | 500 µM (≈ 101 µg/mL) | > 500 µM | 125 µM (≈ 25.3 µg/mL) | 500 µM (≈ 101 µg/mL) | > 500 µM | 250 µM (≈ 50.6 µg/mL) | 250 µM (≈ 50.6 µg/mL) | 500 µM (≈ 101 µg/mL) | 250 µM (≈ 50.6 µg/mL)
8 | CC1C=C(c2cccc(F)c2)C(=O)O1 (configuration not stated) | 250 µM (≈ 48 µg/mL) | 500 µM (≈ 96.1 µg/mL) | 250 µM (≈ 48 µg/mL) | 500 µM (≈ 96.1 µg/mL) | 1000 µM (≈ 192 µg/mL) | 62.5 µM (≈ 12 µg/mL) | 500 µM (≈ 96.1 µg/mL) | 500 µM (≈ 96.1 µg/mL) | > 1000 µM | 125 µM (≈ 24 µg/mL) | 500 µM (≈ 96.1 µg/mL) | 1000 µM (≈ 192 µg/mL) | 250 µM (≈ 48 µg/mL) | 500 µM (≈ 96.1 µg/mL) | > 1000 µM | 125 µM (≈ 24 µg/mL)
9 | CC1C=C(c2ccc(Br)cc2)C(=O)O1 (configuration not stated) | 62.5 µM (≈ 15.8 µg/mL) | 125 µM (≈ 31.6 µg/mL) | 62.5 µM (≈ 15.8 µg/mL) | 250 µM (≈ 63.3 µg/mL) | 500 µM (≈ 127 µg/mL) | 7.81 µM (≈ 1.98 µg/mL) | 250 µM (≈ 63.3 µg/mL) | 250 µM (≈ 63.3 µg/mL) | 1000 µM (≈ 253 µg/mL) | 31.2 µM (≈ 7.91 µg/mL) | 250 µM (≈ 63.3 µg/mL) | 250 µM (≈ 63.3 µg/mL) | 125 µM (≈ 31.6 µg/mL) | 125 µM (≈ 31.6 µg/mL) | 500 µM (≈ 127 µg/mL) | 62.5 µM (≈ 15.8 µg/mL)
10 | CC1C=C(c2ccc(Cl)c(Cl)c2)C(=O)O1 (configuration not stated) | 500 µM (≈ 122 µg/mL) | 7.81 µM (≈ 1.9 µg/mL) | 7.81 µM (≈ 1.9 µg/mL) | > 500 µM | > 500 µM | 31.2 µM (≈ 7.6 µg/mL) | > 500 µM | 62.5 µM (≈ 15.2 µg/mL) | > 500 µM | 31.2 µM (≈ 7.6 µg/mL) | > 500 µM | > 500 µM | 31.2 µM (≈ 7.6 µg/mL) | 31.2 µM (≈ 7.6 µg/mL) | > 500 µM | 62.5 µM (≈ 15.2 µg/mL)
11 | CC1C=C(c2ccccc2)C(=O)O1 (configuration not stated) | > 1000 µM | 1000 µM (≈ 174 µg/mL) | 1000 µM (≈ 174 µg/mL) | > 1000 µM | > 1000 µM | 1000 µM (≈ 174 µg/mL) | > 1000 µM | > 1000 µM | > 1000 µM | 500 µM (≈ 87.1 µg/mL) | > 1000 µM | > 1000 µM | > 1000 µM | > 1000 µM | > 1000 µM | 1000 µM (≈ 174 µg/mL)
12 | CC(=O)N1CCN(c2ccc(OC[C@H]3CO[C@](Cn4ccnc4)(c4ccc(Cl)cc4Cl)O3)cc2)CC1 [KETOCONAZOLE] | 0.12 µM (≈ 0.0638 µg/mL) | 31.2 µM (≈ 16.6 µg/mL) | 15.6 µM (≈ 8.31 µg/mL) | 3.91 µM (≈ 2.08 µg/mL) | 15.6 µM (≈ 8.31 µg/mL) | 0.12 µM (≈ 0.0638 µg/mL) | 15.6 µM (≈ 8.31 µg/mL) | 15.6 µM (≈ 8.31 µg/mL) | 0.49 µM (≈ 0.26 µg/mL) | 0.98 µM (≈ 0.521 µg/mL) | 0.12 µM (≈ 0.0638 µg/mL) | 3.91 µM (≈ 2.08 µg/mL) | 0.12 µM (≈ 0.0638 µg/mL) | 31.2 µM (≈ 16.6 µg/mL) | 0.24 µM (≈ 0.128 µg/mL) | 1.95 µM (≈ 1.04 µg/mL)
